Where “and” joins values, the source holds several entries; their conditions need not be identical. Equal values may be shown once. Read-outs that look alike come from different tables or passages of the source.
Legend:
human TPST1 [1] = biological target: T1, human TPST1 (Homo sapiens, UniProt O60507); test: Differential scanning fluorimetry (thermal shift) assay with TPST1; type: binding; settings: TPST1 5 µM; for Thermal shift of TPST1 (in words): panel of nucleotide-based cofactors; for Thermal shift of TPST1 in the presence of Mg2+ ions (in words): 0.5 mM nucleotide + 10 mM MgCl2
T1 construct: human TPST1 (residues Lys43–Leu360) and TPST2 (residues Gly43–Leu359) enzymes lacking the transmembrane domains; made in house; host or cells: E. coli BL21 (DE3) pLysS
T1 sequence (O60507 43-360): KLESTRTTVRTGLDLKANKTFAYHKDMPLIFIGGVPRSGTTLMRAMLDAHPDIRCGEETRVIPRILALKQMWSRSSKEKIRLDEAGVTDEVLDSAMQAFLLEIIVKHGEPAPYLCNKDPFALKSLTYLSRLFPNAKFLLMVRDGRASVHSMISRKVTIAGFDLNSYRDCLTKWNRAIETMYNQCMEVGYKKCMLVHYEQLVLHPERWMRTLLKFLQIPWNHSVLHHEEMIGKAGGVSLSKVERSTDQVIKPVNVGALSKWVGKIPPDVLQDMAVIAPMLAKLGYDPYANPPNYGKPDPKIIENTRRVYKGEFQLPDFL

human TPST2 = biological target: T2, human TPST2 (Homo sapiens, UniProt O60704); test: Differential scanning fluorimetry (thermal shift) assay with TPST2; type: binding; settings: DSF, TPST2 5 µM; for Thermal shift of TPST2 (in words): 0.5 mM nucleotide, panel of nucleotide-based cofactors; for Thermal shift of TPST2 in the presence of Mg2+ ions (in words): 0.5 mM nucleotide + 10 mM MgCl2
T2 construct: TPST2 (residues Gly43–Leu359) enzymes lacking the transmembrane domains; made in house; host or cells: E. coli BL21 (DE3) pLysS
T2 sequence (O60704 43-359): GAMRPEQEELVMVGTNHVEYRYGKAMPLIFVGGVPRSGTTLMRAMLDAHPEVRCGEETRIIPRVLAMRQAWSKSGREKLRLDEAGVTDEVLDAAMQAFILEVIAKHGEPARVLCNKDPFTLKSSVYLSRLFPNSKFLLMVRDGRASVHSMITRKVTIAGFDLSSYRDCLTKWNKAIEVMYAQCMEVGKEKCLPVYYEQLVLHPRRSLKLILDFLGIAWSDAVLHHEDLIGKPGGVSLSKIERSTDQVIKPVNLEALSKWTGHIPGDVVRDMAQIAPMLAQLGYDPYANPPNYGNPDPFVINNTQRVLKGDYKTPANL

human TPST1 [2] = biological target: T1, human TPST1; test: EZ Reader II microfluidic mobility-shift CC4-tide sulfation assay, TPST1; type: biochemical; settings: for IC50 / TPST1 inhibition at 400 μM: 10 µM PAPS; for TPST1 inhibition at 400 μM: Fig 8A, inhibitor 400 µM
[3] = test system: heparin sulfate 2-O sulfotransferase HS2ST; design: method as in PMID 29934491; settings: cited from earlier work
human TPST1 [4] = biological target: T1, human TPST1; test: GST-CC4-tide tyrosine sulfation by TPST1, immunoblotting with monoclonal sulfotyrosine antibody; type: biochemical
Method: After the assay, proteins were denatured in Laemmli sample buffer, heated at 95°C for 5 min and then analysed by SDS–PAGE with 10% (v/v) polyacrylamide gels. Gels were stained and destained using a standard Coomassie Brilliant Blue protocol. To evaluate protein sulfation and phosphorylation by immunoblotting, standard western blotting procedures were followed using monoclonal anti-sulfotyrosine antibody clone Sulfo-1C-A2 (Millipore) generated using a phage display procedure and sulfotyrosine selection peptide antigens in the presence of appropriate positive and negative controls, and modifications visualised using the ECL reagent.

[5] = substrate: Nc1ncnc2c1ncn2C1OC(COP(=O)(O)OS(=O)(=O)O)C(OP(=O)(O)O)C1O; test: EZ Reader II microfluidic mobility-shift CC4-tide sulfation assay, TPST1; type: biochemical, human; settings: other: CC4-tide 2 µM, TPST1 0.1 µM, four independent experiments; pH 7.4
[6] = Fig 8B, TPST1 0.1 µM pre-incubated with compound, read-out: TPST1 estimated IC50, RAF kinase inhibitors
[7] = Fig 7C, TPST1 0.1 µM, CC4-tide, 30 min at 37°C, duplicate, read-out: TPST1 estimated IC50, PKIS inhibitors

Molecule: CC(C)(COP(=O)(O)OP(=O)(O)OC[C@H]1O[C@@H](n2cnc3c(N)ncnc32)[C@H](O)[C@@H]1OP(=O)(O)O)[C@@H](O)C(=O)NCCC(=O)NCCS [CoA, coenzyme A]
- Thermal shift of TPST1 (in words) (human TPST1 [1]; DSF, 0.5 mM nucleotide): marked stabilisation
- ΔTm TPST1 (human TPST1 [1]; DSF, 0.5 mM nucleotide, relative to buffer control): ~11 °C
- Thermal shift of TPST2 (in words) (human TPST2): marked stabilisation
- Sensitivity of TPST1 inhibition to the concentration of PAPS (human TPST1 [2]; CC4-tide, increasing PAPS, fixed 20 µM PAP or 100 µM ATP, CoA, dephospho-CoA): highly sensitive
- IC50 (human TPST1 [2]; Fig 5A, CC4-tide, 0.1 µM TPST1, absence of MgCl2, read-out: IC50 TPST1, panel of nucleotides): 87 µM and 87.3 µM

Molecule: CCCS(=O)(=O)Nc1ccc(F)c(C(=O)c2c[nH]c3ncc(Cl)cc23)c1F [PLX-4720]
- IC50 (human TPST1 [2]; [6]): > 400 µM

Molecule: O=C1Nc2ccc(C(=O)c3ccco3)cc2C1=Cc1cc(Cl)c(O)c(Cl)c1 [GW406108X]
- TPST1 DSF screen of PKIS, rank of hit (human TPST1 [1]; 20 µM compound, 4% DMSO, hit cut-off ΔTm ± 0.5°C): top compound
- IC50 (human TPST1 [2]; [7]): 16 µM

Molecule: Cc1ccc(NC(=O)c2cccc(N(C)C)c2)cc1NC(=O)c1ccc(O)cc1 [ZM336372]
- TPST1 inhibition at 400 μM (human TPST1 [2]; TPST1 0.1 µM, duplicate): essentially complete TPST1 inhibition
- IC50 (human TPST1 [2]; [6]): 253 µM

Molecule: COC(=O)c1ccc2c(c1)C(=Cc1cc(Br)c(O)c(Br)c1)C(=O)N2 [GW405841X]
- IC50 (human TPST1 [2]; [7]): > 40 µM

Molecule: O=C(O)C1=CC(=C(c2ccc(O)c(C(=O)O)c2)c2ccc(O)c(C(=O)O)c2)C=CC1=O [Aurintricarboxylic acid, aurintricarboxylic acid]
- HS2ST inhibition in vitro (in words) [3]: inhibitory activity

Molecule: Cn1c(Nc2ccc(C(F)(F)F)cc2)nc2cc(Oc3ccnc(-c4ncc(C(F)(F)F)[nH]4)c3)ccc21 [RAF265]
- TPST1 inhibition at 400 μM (human TPST1 [2]; TPST1 0.1 µM, duplicate): essentially complete TPST1 inhibition
- IC50 (human TPST1 [2]; [6]): 6.5 µM
- Inhibition of GST-CC4-tide tyrosine sulfation by TPST1 (immunoblot, in words) (human TPST1 [4]; GST-CC4-tide 1 µg, 10 µM PAPS, increasing concentrations of inhibitor): dose-dependent inhibition
- Mode of TPST1 inhibition with respect to PAPS (immunoblot densitometry) (human TPST1 [4]; GST-CC4-tide, increasing PAPS concentration): partially competitive mode of inhibition with PAPS
- HS2ST inhibition in vitro (in words) [3]: did not inhibit HS2ST at any concentration tested

Molecule: CC(=O)SCCNC(=O)CCNC(=O)[C@H](O)C(C)(C)COP(=O)(O)OP(=O)(O)OC[C@H]1O[C@@H](n2cnc3c(N)ncnc32)[C@H](O)[C@@H]1OP(=O)(O)O [acetyl CoA]
- Thermal shift of TPST1 (in words) (human TPST1 [1]; DSF, 0.5 mM nucleotide): marked stabilisation
- Thermal shift of TPST2 (in words) (human TPST2): marked stabilisation

Molecule: CNC(=O)c1cncc(/C=C/c2ccccc2C)c1 [GW445015X]
- inhibition at 20 µM (human TPST1 [2]; at 20 μM, read-out: TPST1 enzyme inhibition, PKIS screen): > 40%

Molecule: CC(C)(C)c1nc(-c2cccc(NS(=O)(=O)c3c(F)cccc3F)c2F)c(-c2ccnc(N)n2)s1 [Dabrafenib, dabrafenib]
- TPST1 inhibition at 400 μM (human TPST1 [2]; TPST1 0.1 µM, duplicate): essentially complete TPST1 inhibition
- IC50 (human TPST1 [2]; [6]): 269 µM

Molecule: Nc1nc2c(ncn2[C@@H]2O[C@H](COP(=O)(O)OP(=O)(O)OP(=O)(O)O)[C@@H](O)[C@H]2O)c(=O)[nH]1 [GTP, guanosine 5′-triphosphate]
- Thermal shift of TPST1 in the presence of Mg2+ ions (in words) (human TPST1 [1]; DSF): abolished
- Thermal shift of TPST1 (in words) (human TPST1 [1]; DSF, 0.5 mM nucleotide): marked stabilisation
- Thermal shift of TPST2 in the presence of Mg2+ ions (in words) (human TPST2): abolished
- Thermal shift of TPST2 (in words) (human TPST2): marked stabilisation

Molecule: Nc1ncnc2c1ncn2[C@@H]1O[C@H](COP(=O)(O)OP(=O)(O)O)[C@@H](O)[C@H]1O [ADP, adenosine 5′-diphosphate]
- Thermal shift of TPST1 in the presence of Mg2+ ions (in words) (human TPST1 [1]; DSF): abolished
- Thermal shift of TPST1 (in words) (human TPST1 [1]; DSF, 0.5 mM nucleotide): marked stabilisation
- Thermal shift of TPST2 in the presence of Mg2+ ions (in words) (human TPST2): abolished
- Thermal shift of TPST2 (in words) (human TPST2): marked stabilisation

B1: human TPST1 (Homo sapiens) (protein)
chain: KLESTRTTVRTGLDLKANKTFAYHKDMPLIFIGGVPRSGTTLMRAMLDAHPDIRCGEETRVIPRILALKQMWSRSSKEKIRLDEAGVTDEVLDSAMQAFLLEIIVKHGEPAPYLCNKDPFALKSLTYLSRLFPNAKFLLMVRDGRASVHSMISRKVTIAGFDLNSYRDCLTKWNRAIETMYNQCMEVGYKKCMLVHYEQLVLHPERWMRTLLKFLQIPWNHSVLHHEEMIGKAGGVSLSKVERSTDQVIKPVNVGALSKWVGKIPPDVLQDMAVIAPMLAKLGYDPYANPPNYGKPDPKIIENTRRVYKGEFQLPDFL
notes: human TPST1 (residues Lys43–Leu360) and TPST2 (residues Gly43–Leu359) enzymes lacking the transmembrane domains; made in house; host or cells: E. coli BL21 (DE3) pLysS
- Km [5]: 6.6 ± 1.9 µM

From paper PMC6094398, “New tools for evaluating protein tyrosine sulfation: tyrosylprotein sulfotransferases (TPSTs) are novel targets for RAF protein kinase inhibitors” (Biochemical Journal, 2018)
